# Paper PMC5053573, “Structure-Based Design of Tetrahydroisoquinoline-7-carboxamides as Selective Discoidin Domain Receptor 1 (DDR1) Inhibitors” (Journal of Medicinal Chemistry, 2016)
# Tests used:
# Assay in all cases: biochemical
# Conditions in all cases: read-out: %Ctrl @ 1000nM
# IKK-beta = molecular target: T1, IKK-beta (Homo sapiens, UniProt O14920)
# T1 construct: gene IKBKB
# MST1R = MST1R (Homo sapiens, UniProt Q04912)
# CLK2 = CLK2 (Homo sapiens, UniProt P49760)
# EPHA6 = EPHA6 (Homo sapiens, UniProt Q9UF33)
# PIK3C2B = PIK3C2B (Homo sapiens, UniProt O00750)
# Chain of PIK3C2B (O00750 whole entry): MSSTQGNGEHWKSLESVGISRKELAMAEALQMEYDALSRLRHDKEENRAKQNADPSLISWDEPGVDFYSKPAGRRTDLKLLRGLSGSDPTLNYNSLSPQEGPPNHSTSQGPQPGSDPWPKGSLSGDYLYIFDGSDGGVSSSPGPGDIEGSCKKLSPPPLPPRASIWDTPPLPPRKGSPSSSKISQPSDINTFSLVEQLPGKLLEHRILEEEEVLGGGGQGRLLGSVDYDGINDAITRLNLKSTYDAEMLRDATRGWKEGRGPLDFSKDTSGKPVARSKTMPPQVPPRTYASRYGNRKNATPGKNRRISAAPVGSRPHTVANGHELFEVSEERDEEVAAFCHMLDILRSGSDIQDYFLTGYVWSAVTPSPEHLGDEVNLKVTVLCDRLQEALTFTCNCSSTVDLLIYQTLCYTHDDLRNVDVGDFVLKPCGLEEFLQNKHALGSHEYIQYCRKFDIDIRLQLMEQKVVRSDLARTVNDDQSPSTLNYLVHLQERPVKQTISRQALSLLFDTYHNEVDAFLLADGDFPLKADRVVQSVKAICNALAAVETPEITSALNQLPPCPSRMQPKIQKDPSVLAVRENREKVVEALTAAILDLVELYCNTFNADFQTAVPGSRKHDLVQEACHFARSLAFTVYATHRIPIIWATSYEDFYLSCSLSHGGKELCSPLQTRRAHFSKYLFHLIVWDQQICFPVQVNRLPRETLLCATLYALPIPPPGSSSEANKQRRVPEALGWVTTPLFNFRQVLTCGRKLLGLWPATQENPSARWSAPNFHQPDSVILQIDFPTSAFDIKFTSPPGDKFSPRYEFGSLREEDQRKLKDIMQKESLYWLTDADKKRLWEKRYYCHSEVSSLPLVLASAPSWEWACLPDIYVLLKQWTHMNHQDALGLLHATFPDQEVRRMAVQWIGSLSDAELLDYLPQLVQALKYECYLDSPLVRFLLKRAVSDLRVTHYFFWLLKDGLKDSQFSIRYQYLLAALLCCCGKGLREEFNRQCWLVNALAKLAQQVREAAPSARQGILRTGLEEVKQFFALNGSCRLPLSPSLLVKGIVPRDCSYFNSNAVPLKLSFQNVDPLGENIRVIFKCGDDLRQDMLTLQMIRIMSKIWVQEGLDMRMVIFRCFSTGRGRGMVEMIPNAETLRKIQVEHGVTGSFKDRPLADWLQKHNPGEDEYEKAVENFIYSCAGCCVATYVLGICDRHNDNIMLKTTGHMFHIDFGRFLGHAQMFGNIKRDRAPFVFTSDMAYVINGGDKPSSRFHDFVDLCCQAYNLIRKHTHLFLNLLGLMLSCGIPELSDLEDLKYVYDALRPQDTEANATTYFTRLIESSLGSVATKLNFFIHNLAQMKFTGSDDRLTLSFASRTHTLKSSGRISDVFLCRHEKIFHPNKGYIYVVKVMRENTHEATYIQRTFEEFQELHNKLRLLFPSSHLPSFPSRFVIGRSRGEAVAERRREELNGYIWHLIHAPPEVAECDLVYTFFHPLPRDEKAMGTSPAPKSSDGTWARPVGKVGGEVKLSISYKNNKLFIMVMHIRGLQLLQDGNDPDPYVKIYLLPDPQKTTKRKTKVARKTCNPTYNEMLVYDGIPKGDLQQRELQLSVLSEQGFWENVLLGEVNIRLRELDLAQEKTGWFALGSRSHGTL
# CDK7 = CDK7 (Homo sapiens, UniProt P50613)
# PRKR = molecular target: T2, PRKR (Homo sapiens, UniProt P19525)
# T2 construct: gene EIF2AK2
# MAP3K15 = MAP3K15 (Homo sapiens, UniProt Q6ZN16)
# BRAF(V600E) = BRAF(V600E) (Homo sapiens, UniProt P15056, V600E)
# AMPK-alpha1 = molecular target: T3, AMPK-alpha1 (Homo sapiens, UniProt Q13131)
# T3 construct: gene PRKAA1
# T3 sequence (Q13131 whole entry): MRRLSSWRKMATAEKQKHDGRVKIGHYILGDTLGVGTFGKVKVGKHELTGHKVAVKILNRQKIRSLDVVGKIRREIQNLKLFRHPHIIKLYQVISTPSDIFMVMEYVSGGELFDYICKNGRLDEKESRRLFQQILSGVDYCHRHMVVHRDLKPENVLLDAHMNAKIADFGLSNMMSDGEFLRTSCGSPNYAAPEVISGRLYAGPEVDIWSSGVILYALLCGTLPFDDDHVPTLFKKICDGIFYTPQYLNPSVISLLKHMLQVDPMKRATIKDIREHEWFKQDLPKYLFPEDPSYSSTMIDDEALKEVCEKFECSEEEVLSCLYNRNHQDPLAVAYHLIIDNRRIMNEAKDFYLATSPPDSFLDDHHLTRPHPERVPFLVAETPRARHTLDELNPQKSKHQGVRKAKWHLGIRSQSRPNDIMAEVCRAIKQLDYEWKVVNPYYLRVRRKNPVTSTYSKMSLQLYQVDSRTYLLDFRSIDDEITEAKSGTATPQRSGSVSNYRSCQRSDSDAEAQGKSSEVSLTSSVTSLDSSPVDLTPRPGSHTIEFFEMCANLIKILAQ
# CDC2L5 = molecular target: T4, CDC2L5 (Homo sapiens, UniProt Q14004)
# T4 construct: gene CDK13
# INSR = INSR (Homo sapiens, UniProt P06213)
# ACVR2B = ACVR2B (Homo sapiens, UniProt Q13705)
# KIT-autoinhibited = KIT-autoinhibited (Homo sapiens, UniProt P10721)
# EPHA2 = EPHA2 (Homo sapiens, UniProt P29317)
# BRSK1 = BRSK1 (Homo sapiens, UniProt Q8TDC3)
# PIK4CB = molecular target: T5, PIK4CB (Homo sapiens, UniProt Q9UBF8)
# T5 construct: gene PI4KB
# T5 sequence (Q9UBF8 whole entry): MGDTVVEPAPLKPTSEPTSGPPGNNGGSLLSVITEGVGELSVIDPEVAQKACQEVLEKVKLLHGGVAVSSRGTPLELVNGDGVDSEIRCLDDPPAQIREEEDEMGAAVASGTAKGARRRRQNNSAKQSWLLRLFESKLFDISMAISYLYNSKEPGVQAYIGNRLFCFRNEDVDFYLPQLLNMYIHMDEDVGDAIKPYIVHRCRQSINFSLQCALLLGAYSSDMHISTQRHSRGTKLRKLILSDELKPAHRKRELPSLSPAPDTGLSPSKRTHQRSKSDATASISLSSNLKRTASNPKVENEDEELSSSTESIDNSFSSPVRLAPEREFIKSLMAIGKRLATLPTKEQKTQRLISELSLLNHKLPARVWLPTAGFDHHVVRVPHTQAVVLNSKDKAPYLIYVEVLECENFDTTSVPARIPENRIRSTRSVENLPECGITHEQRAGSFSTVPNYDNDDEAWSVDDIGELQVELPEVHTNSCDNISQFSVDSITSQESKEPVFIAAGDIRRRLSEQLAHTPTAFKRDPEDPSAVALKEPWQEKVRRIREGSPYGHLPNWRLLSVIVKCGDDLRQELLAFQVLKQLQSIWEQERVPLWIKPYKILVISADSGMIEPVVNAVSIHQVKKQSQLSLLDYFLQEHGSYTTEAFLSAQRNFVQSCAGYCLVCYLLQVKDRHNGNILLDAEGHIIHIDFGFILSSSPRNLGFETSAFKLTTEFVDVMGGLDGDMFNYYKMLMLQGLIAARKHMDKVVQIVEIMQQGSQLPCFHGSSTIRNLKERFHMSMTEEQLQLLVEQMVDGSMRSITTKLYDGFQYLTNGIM
# BMPR2 = BMPR2 (Homo sapiens, UniProt Q13873)
# PFTAIRE2 = molecular target: T6, PFTAIRE2 (Homo sapiens, UniProt Q96Q40)
# T6 construct: gene CDK15
# T6 sequence (Q96Q40 whole entry): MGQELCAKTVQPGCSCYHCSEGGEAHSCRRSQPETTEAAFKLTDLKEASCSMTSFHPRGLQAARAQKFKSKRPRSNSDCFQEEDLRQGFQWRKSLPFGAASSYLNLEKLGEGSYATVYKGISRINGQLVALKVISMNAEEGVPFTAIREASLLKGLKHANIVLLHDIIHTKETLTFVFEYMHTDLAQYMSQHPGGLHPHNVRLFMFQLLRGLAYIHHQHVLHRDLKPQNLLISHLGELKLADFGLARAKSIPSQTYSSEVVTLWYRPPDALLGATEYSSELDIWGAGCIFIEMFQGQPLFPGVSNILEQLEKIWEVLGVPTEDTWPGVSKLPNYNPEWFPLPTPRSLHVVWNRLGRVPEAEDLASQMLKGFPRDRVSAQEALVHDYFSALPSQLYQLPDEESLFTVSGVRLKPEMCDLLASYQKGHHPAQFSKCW
# SGK3 = SGK3 (Homo sapiens, UniProt Q96BR1)
# FYN = FYN (Homo sapiens, UniProt P06241)
# HIPK4 = HIPK4 (Homo sapiens, UniProt Q8NE63)
# [1] = molecular target: ABL1(F317I)-phosphorylated (Homo sapiens, UniProt P00519, F317I)
# MAPKAPK5 = MAPKAPK5 (Homo sapiens, UniProt Q8IW41)
# PKAC-beta = molecular target: T7, PKAC-beta (Homo sapiens, UniProt P22694)
# T7 construct: gene PRKACB
# EGFR(E746-A750del) = EGFR(E746-A750del) (Homo sapiens, UniProt P00533, DEL746-750)
# ABL1-phosphorylated = ABL1-phosphorylated (Homo sapiens, UniProt P00519)
# MERTK = MERTK (Homo sapiens, UniProt Q12866)
# FLT3 = FLT3 (Homo sapiens, UniProt P36888)
# CSNK1G2 = CSNK1G2 (Homo sapiens, UniProt P78368)
# MET(Y1235D) = MET(Y1235D) (Homo sapiens, UniProt P08581, Y1235D)
# [2] = molecular target: JAK1(JH2domain-pseudokinase) (Homo sapiens, UniProt P23458)
# [3] = molecular target: ABL1(T315I)-phosphorylated (Homo sapiens, UniProt P00519, T315I)
# NEK9 = NEK9 (Homo sapiens, UniProt Q8TD19)
# MST4 = molecular target: T8, MST4 (Homo sapiens, UniProt Q9P289)
# T8 construct: gene STK26
# Chain of MST1R (Q04912 whole entry): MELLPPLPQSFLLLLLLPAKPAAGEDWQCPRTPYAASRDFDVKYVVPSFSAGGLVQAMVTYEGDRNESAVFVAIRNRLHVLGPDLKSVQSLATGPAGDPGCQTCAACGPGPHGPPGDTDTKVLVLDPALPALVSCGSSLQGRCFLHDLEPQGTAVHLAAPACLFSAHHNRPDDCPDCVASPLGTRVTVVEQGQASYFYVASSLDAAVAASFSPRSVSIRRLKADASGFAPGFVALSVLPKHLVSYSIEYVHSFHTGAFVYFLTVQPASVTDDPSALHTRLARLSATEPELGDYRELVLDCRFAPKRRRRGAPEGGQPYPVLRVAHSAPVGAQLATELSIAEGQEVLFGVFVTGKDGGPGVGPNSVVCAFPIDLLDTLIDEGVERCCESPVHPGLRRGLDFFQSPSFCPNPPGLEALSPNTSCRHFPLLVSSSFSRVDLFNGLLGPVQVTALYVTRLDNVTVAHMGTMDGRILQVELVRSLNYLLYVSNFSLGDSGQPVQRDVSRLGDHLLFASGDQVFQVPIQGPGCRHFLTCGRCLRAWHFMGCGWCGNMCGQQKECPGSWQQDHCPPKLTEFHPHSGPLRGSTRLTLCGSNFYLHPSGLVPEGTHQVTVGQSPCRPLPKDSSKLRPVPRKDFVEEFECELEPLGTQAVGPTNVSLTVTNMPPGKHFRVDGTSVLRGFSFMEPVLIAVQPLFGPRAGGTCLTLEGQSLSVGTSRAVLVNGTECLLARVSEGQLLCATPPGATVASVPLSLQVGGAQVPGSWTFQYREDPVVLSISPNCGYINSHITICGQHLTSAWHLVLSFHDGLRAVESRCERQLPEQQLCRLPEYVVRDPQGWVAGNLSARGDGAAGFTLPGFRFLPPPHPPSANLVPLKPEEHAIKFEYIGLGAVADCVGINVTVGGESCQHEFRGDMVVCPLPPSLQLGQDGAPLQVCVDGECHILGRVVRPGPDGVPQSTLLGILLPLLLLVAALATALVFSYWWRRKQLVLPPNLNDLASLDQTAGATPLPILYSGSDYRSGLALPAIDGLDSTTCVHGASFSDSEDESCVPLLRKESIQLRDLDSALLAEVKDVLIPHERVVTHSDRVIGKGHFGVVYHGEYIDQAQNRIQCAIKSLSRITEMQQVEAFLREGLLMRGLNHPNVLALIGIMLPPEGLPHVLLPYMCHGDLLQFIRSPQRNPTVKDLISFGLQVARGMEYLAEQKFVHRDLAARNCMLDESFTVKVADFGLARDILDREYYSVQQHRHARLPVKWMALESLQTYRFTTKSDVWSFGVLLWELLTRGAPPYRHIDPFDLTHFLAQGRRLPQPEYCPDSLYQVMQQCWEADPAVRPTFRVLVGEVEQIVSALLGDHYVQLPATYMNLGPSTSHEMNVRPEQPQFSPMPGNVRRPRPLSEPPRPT
compound,measurement,setting,value
Cc1cn(-c2cc(NC(=O)c3ccc4c(c3)CN(c3cncnc3)C[C@@H]4C)cc(C(F)(F)F)c2)cn1 [Compound 6j],remaining activity at 1 µM,IKK-beta,100%
same,remaining activity at 1 µM,MST1R,97%
same,remaining activity at 1 µM,CLK2,86%
same,remaining activity at 1 µM,EPHA6,58%
same,remaining activity at 1 µM,PIK3C2B,100%
same,remaining activity at 1 µM,CDK7,80%
same,remaining activity at 1 µM,PRKR,100%
same,remaining activity at 1 µM,MAP3K15,100%
same,remaining activity at 1 µM,BRAF(V600E),100%
same,remaining activity at 1 µM,AMPK-alpha1,83%
same,remaining activity at 1 µM,CDC2L5,100%
same,remaining activity at 1 µM,INSR,100%
same,remaining activity at 1 µM,ACVR2B,93%
same,remaining activity at 1 µM,KIT-autoinhibited,100%
same,remaining activity at 1 µM,EPHA2,65%
same,remaining activity at 1 µM,BRSK1,98%
same,remaining activity at 1 µM,PIK4CB,95%
same,remaining activity at 1 µM,BMPR2,100%
same,remaining activity at 1 µM,PFTAIRE2,86%
same,remaining activity at 1 µM,SGK3,100%
same,remaining activity at 1 µM,FYN,69%
same,remaining activity at 1 µM,HIPK4,87%
same,remaining activity at 1 µM,[1],82%
same,remaining activity at 1 µM,MAPKAPK5,100%
same,remaining activity at 1 µM,PKAC-beta,97%
same,remaining activity at 1 µM,EGFR(E746-A750del),94%
same,remaining activity at 1 µM,ABL1-phosphorylated,80%
same,remaining activity at 1 µM,MERTK,61%
same,remaining activity at 1 µM,FLT3,56%
same,remaining activity at 1 µM,CSNK1G2,92%
same,remaining activity at 1 µM,MET(Y1235D),68%
same,remaining activity at 1 µM,[2],100%
same,remaining activity at 1 µM,[3],97%
same,remaining activity at 1 µM,NEK9,85%
same,remaining activity at 1 µM,MST4,100%
